Assay results taken from patent publication US9428504B2, “7-hydroxy-spiropipiperidine indolinyl antagonists of P2Y1 receptor” (BRISTOL-MYERS SQUIBB COMPANY, priority 2012, dated 2016).
Where two headings read alike, the source gives them in different places.

Tests used:
[1] = test system: human platelet rich plasma (PRP); assay: ADP induced platelet aggregation assay
Method: The ability of P2Y1 antagonists covered in the present invention to inhibit platelet aggregation induced by 10 μM ADP was tested using human platelet rich plasma (PRP) as described in Platelet Protocols: Research and Clinical Laboratory Procedures (White, M. M. et al., Academic Press (1999)). Human blood was collected in 30 μM (final concentration in blood) argatroban (GSK) as the anticoagulant at a ratio of 1 ml per 9 ml of blood. The PRP was isolated by centrifugation at 170 g for 12 minutes. The platelet poor plasma (PPP) was used as the blank for optical aggregometry. Compounds of the present invention in DMSO solution was preincubated with 250 μl PRP at 37° C. for 1 minute with stirring speed of 1000 rpm. Aggregation was initiated by addition of 2.5 μl of 1 mM ADP (Chrono-log, Havertown, Pa.) for a final ADP concentration of 10 μM. Platelet aggregation was monitored using Optical Aggregometer (Chrono-log, Havertown, Pa.) and the area under the curve (AUC) at 5 minute was measured. IC50 was calculated using vehicle control as 0% inhibition.

[2] = target: T1, cloned human P2Y1 receptors (Homo sapiens (Human), UniProt P47900); assay: Binding Assay A: membrane binding assay, [33P] 2MeS-ADP; details: values marked *; WGA FlashPlate, [33P] 2MeS-ADP displacement; read-out: P2Y1 Ki (nM) *Using binding assay A
T1 sequence (P47900 whole entry): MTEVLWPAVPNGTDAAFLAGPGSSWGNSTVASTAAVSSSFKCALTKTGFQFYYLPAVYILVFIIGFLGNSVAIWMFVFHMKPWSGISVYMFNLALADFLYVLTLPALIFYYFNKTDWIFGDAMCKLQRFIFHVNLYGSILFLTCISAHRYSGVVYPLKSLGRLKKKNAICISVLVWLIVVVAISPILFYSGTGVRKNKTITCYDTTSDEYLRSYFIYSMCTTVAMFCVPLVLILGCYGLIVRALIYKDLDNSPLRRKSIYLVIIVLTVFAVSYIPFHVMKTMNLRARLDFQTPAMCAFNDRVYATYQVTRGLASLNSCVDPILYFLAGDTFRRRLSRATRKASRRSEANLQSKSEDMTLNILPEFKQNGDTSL
Source text: A membrane binding assay was used to identify inhibitors of [^33P] […] The cDNA clone for human P2Y1 was obtained from Incyte Pharmaceuticals and its sequence confirmed by established techniques (for a compendium of techniques used see Ausubel, F. et al. Current Protocols in Molecular Biology, John Wiley and Sons, NY, N.Y. (1995)). The essential coding sequences were subcloned into pCDNA 3.1 (Invitrogen) to produce a P2Y1 expression construct. This construct was then transfected into the human embryonic kidney cell line HEK-293 and stable transfectants selected in GENETICIN® (G418 sulfate; Life Technologies). […] Membranes were prepared by growing HEK293 #49 in 150 mm dishes in DMEM/10% FBS in the presence of 1 mg/ml G418 until cells were 80-90% confluent. Plates were then washed with cold (4° C.) D-PBS twice and cells harvested by scraping into 10 mL D-PBS. Cells were pelleted by centrifugation (1,000 g, 10 min, 4° C.) and the resulting pellet resuspended in Lysis Buffer (10 mM Tris (7.4), 5 mM MgCl2 containing Complete protease inhibitor cocktail (Roche Cat #1873580) as recommended by the manufacturer). The suspension was then homogenized in a Dounce homogenizer (10-15 strokes; B pestle, on ice) and the homogenate spun at 1,000 g, 4° C., 5 min to pellet large debris. The supernatant was centrifuged at 150,000 g, 4° C., for 1 hour and the resulting membrane pellet resuspended in 0.5-1 mL of Buffer B (15 mM HEPES (7.4), 145 mM NaCl, 0.1 mM MgCl2, 5 mM EDTA, 5 mM KCl) and stored at −70° C. until used.
Binding reactions were performed in WGA FLASHPLATE®s (PerkinElmer Life Sciences, Cat # SMP105A) in a volume of 200 μL containing ˜45 fmol of P2Y1 receptor (5 μg of total protein), 0.5 nM [^33P] […] Reactions were allowed to proceed to completion at room temperature for 1 hour and then the aqueous solution aspirated. Plates were sealed and the residual [^33P] bound to the plate determined by scintillation counting.

[3] = target: T1, cloned human P2Y1 receptors; assay: Binding Assay B: Scintillation Proximity Assay (SPA) for P2Y1 binding; details: SPA, [33P] 2MeS-ADP displacement; read-out: P2Y1 Ki (nM) using binding assay B
Summary of the method: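 Scintillation proximity readout of 0.3 nM [^33P] tracer displacement from receptor membranes (~15 fmol receptor, 1.7 μg protein). Binding ran 1 h at room temperature to completion; plates were then centrifuged and aqueous phase aspirated before counting.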

[4] = Homo sapiens, Platelet, read-out: PA IC50 (μM) @ 10 μM ADP, platelet aggregation induced by 10 μM ADP, human PRP

| SMILES | IC50 [1, 4] [µM] | Ki [2] [nM] | Ki [3] [nM] | IC50 ([1]; read-out: PA IC50 (μM) @ 10 μM ADP, platelet aggregation induced by 10 μM ADP, human PRP) [µM] |
| --- | --- | --- | --- | --- |
| CC(C)N1CCC2(CC1)CN(c1ccccc1NC(=O)Nc1ccc(OC(F)(F)F)cc1)c1ccccc12 [Comparator 1, reference compound] | 29.2 | 300 |  |  |
| CC(C)CN1CCC2(CC1)CN(c1ccccc1NC(=O)Nc1ccc(OC(F)(F)F)cc1)c1ccccc12 [Comparator 2, reference compound] | 8.8 | 20.2 |  |  |
| CC(C)N1CCC2(CC1)CN(c1ncccc1NC(=O)Nc1ccc(OC(F)(F)F)cc1)c1ccccc12 [Comparator 3, reference compound] |  | 5300 |  |  |
| CC(C)(C)CN1CCC2(CC1)CN(c1ccccc1NC(=O)Nc1ccc(OC(F)(F)F)cc1)c1c(O)cccc12 [Example 1, 1-(2-(7-Hydroxy-1′-neopentylspiro[indoline-3,4′-piperidine]-1-yl)phenyl)-3-(4-(trifluoromethoxy)phenyl)urea] | 1.7 | 10.3 |  |  |
| CC(C)(C)CN1CCC2(CC1)CN(c1ncccc1NC(=O)Nc1ccc(C(C)(C)C)cc1)c1c(O)ccc(C(F)(F)F)c12 [Example 13, 1-(4-tert-Butylphenyl)-3-(2-(7-hydroxy-1′-neopentyl-4-(trifluoromethyl)spiro[indoline-3,4′-piperidine]-1-yl)pyridin-3-yl)urea] | 0.5 | 3.3 |  |  |
| CC(C)(C)CN1CCC2(CC1)CN(c1ccccc1NC(=O)Nc1ccc(OC(F)(F)F)cc1)c1c(O)cc(F)c(-c3ccc(Cl)cc3)c12 [Example 157, 1-(2-(4-(4-Chlorophenyl)-5-fluoro-7-hydroxy-1′-neopentylspiro[indoline-3,4′-piperidin]-1-yl)phenyl)-3-(4-(trifluoromethoxy)phenyl)urea] | 0.2 |  | 12.3 |  |
| CC(C)(C)CN1CCC2(CC1)CN(c1ccccc1NC(=O)Nc1csc(C(F)(F)F)n1)c1c(O)cc(F)c(-c3ccc(Cl)cc3)c12 [Example 158, 1-(2-(4-(4-Chlorophenyl)-5-fluoro-7-hydroxy-1′-neopentylspiro[indoline-3,4′-piperidin]-1-yl)phenyl)-3-(2-(trifluoromethyl)thiazol-4-yl)urea] | 0.3 |  | 15.4 |  |
| CC(C)(C)CN1CCC2(CC1)CN(c1ccccc1NC(=O)Nc1csc(C(F)(F)F)n1)c1c(O)cc(F)c(-c3ccc(C(F)(F)F)nc3)c12 [Example 159, 1-(2-(5-Fluoro-7-hydroxy-1′-neopentyl-4-(6-(trifluoromethyl)pyridin-3-yl)spiro[indoline-3,4′-piperidin]-1-yl)phenyl)-3-(2-(trifluoromethyl)thiazol-4-yl)urea] | 0.1 |  | 281 |  |
| CC(C)(C)CN1CCC2(CC1)CN(c1ccccc1NC(=O)Nc1ccc(OC(F)(F)F)cc1)c1c(O)cc(F)c(-c3ccc(C(F)(F)F)nc3)c12 [Example 160, 1-(2-(5-Fluoro-7-hydroxy-1′-neopentyl-4-(6-(trifluoromethyl)pyridin-3-yl)spiro[indoline-3,4′-piperidin]-1-yl)phenyl)-3-(4-(trifluoromethoxy)phenyl)urea] | 0.1 |  | 199 |  |
| CC(C)(C)CN1CCC2(CC1)CN(c1ccccc1NC(=O)Nc1nc3ccc(F)cc3s1)c1c(O)cc(F)c(-c3ccc(C(F)(F)F)nc3)c12 [Example 161, 1-(2-(5-Fluoro-7-hydroxy-1′-neopentyl-4-(6-(trifluoromethyl)pyridin-3-yl)spiro[indoline-3,4′-piperidin]-1-yl)phenyl)-3-(6-fluorobenzo[d]thiazol-2-yl)urea] | 0.2 |  | 41.1 |  |
| CC(C)(C)CN1CCC2(CC1)CN(c1ccccc1NC(=O)Nc1nc3ccc(Cl)cc3s1)c1c(O)cc(F)c(-c3ccc(C(F)(F)F)nc3)c12 [Example 162, 1-(6-Chlorobenzo[d]thiazol-2-yl)-3-(2-(5-fluoro-7-hydroxy-1′-neopentyl-4-(6-(trifluoromethyl)pyridin-3-yl)spiro[indoline-3,4′-piperidin]-1-yl)phenyl)urea] | 0.5 |  | 65.5 |  |
| CC(C)(C)CN1CCC2(CC1)CN(c1ccccc1NC(=O)Nc1nc3ccc(Cl)nc3s1)c1c(O)cc(F)c(-c3ccc(Cl)cc3)c12 [Example 164, 1-(2-(4-(4-Chlorophenyl)-5-fluoro-7-hydroxy-1′-neopentylspiro[indoline-3,4′-piperidin]-1-yl)phenyl)-3-(5-chlorothiazolo[5,4-b]pyridin-2-yl)urea] | 0.6 |  | 24.9 |  |
| CC(C)(C)CN1CCC2(CC1)CN(c1ccccc1NC(=O)Nc1nc3ccc(F)cc3s1)c1c(O)cc(F)c(-c3ccc(Cl)cc3)c12 [Example 165, 1-(2-(4-(4-Chlorophenyl)-5-fluoro-7-hydroxy-1′-neopentylspiro[indoline-3,4′-piperidin]-1-yl)phenyl)-3-(6-fluorobenzo[d]thiazol-2-yl)urea] | 0.3 |  | 56.2 |  |
| CC(C)(C)CN1CCC2(CC1)CN(c1ccccc1NC(=O)Nc1nc3ccc(Cl)nc3s1)c1c(O)ccc(Cl)c12 [Example 166, 1-(2-(4-Chloro-7-hydroxy-1′-neopentylspiro[indoline-3,4′-piperidine]-1-yl)phenyl)-3-(5-chlorothiazolo[5,4-b]pyridin-2-yl)urea] |  |  | 6.8 | 0.1 |
| CC(C)(C)CN1CCC2(CC1)CN(c1ccccc1NC(=O)Nc1nc3ccc(Cl)nc3s1)c1c(O)ccc(F)c12 [Example 168, 1-(5-Chlorothiazolo[5,4-b]pyridin-2-yl)-3-(2-(4-fluoro-7-hydroxy-1′-neopentylspiro-[indoline-3,4′-piperidine]-1-yl)phenyl)urea] | 0.3 |  | 8.6 |  |
| COc1ccc2nc(NC(=O)Nc3ccccc3N3CC4(CCN(CC(C)(C)C)CC4)c4c(Cl)ccc(O)c43)sc2n1 [Example 169, 1-(2-(4-Chloro-7-hydroxy-1′-neopentylspiro[indoline-3,4′-piperidine]-1-yl)phenyl)-3-(5-methoxythiazolo[5,4-b]pyridin-2-yl)urea] | 0.2 |  | 11.5 |  |
| CC(C)(C)CN1CCC2(CC1)CN(c1ccccc1NC(=O)Nc1nc3ccc(F)nc3s1)c1c(O)ccc(Cl)c12 [Example 170] | 0.5 |  | 6.5 |  |
| CC(C)(C)CN1CCC2(CC1)CN(c1ccccc1NC(=O)Nc1nc3ccc(Cl)nc3s1)c1c(O)cccc12 [Example 172, 1-(5-Chlorothiazolo[5,4-b]pyridin-2-yl)-3-(2-(7-hydroxy-1′-neopentylspiro[indoline-3,4′-piperidine]-1-yl)phenyl)urea] | 0.6 |  | 5.3 |  |
| COc1ccc2nc(NC(=O)Nc3ccccc3N3CC4(CCN(CC(C)(C)C)CC4)c4c(F)ccc(O)c43)sc2n1 [Example 173, 1-(2-(4-Fluoro-7-hydroxy-1′-neopentylspiro[indoline-3,4′-piperidine]-1-yl)phenyl)-3-(5-methoxythiazolo[5,4-b]pyridin-2-yl)urea] | 0.3 |  | 3.8 |  |
| CC(C)(C)CN1CCC2(CC1)CN(c1ccccc1NC(=O)Nc1nc3ccc(F)nc3s1)c1c(O)ccc(F)c12 [Example 174, 1-(2-(4-Fluoro-7-hydroxy-1′-neopentylspiro[indoline-3,4′-piperidine]-1-yl)phenyl)-3-(5-fluorothiazolo[5,4-b]pyridin-2-yl)urea] | 0.2 |  | 7 |  |
| CC(C)(C)CN1CCC2(CC1)CN(c1ccccc1NC(=O)Nc1nc3ccc(Cl)nc3s1)c1c(O)ccc(C(F)(F)F)c12 [Example 175, 1-(5-Chlorothiazolo[5,4-b]pyridin-2-yl)-3-(2-(7-hydroxy-1′-neopentyl-4-(trifluoromethyl)spiro[indoline-3,4′-piperidine]-1-yl)phenyl)urea] | 0.5 |  | 13.4 |  |
| CC(C)(C)CN1CCC2(CC1)CN(c1ncccc1NC(=O)Nc1nc3ccc(Cl)nc3s1)c1c(O)ccc(C(F)(F)F)c12 [Example 176, 1-(5-Chlorothiazolo[5,4-b]pyridin-2-yl)-3-(2-(7-hydroxy-1′-neopentyl-4-(trifluoromethyl)spiro[indoline-3,4′-piperidine]-1-yl)pyridin-3-yl)urea] | 0.4 |  | 7.2 |  |
